Laboratory results reported in ChEMBL document CHEMBL1146993, “Synthesis and structure-activity relationships of novel dipeptides and reduced dipeptides as ligands for melanocortin subtype-4 receptor” (Bioorg Med Chem Lett, 2006).

What was measured:
Format in all cases: cell-based
Melanocortin receptor 4 = Melanocortin receptor 4 (Homo sapiens, UniProt P32245); experiment: Displacement of [125I]NDP-alpha-MSH from cloned human MC4R expressed in HEK293 cells
[1] = target: Melanocyte-stimulating hormone receptor (Homo sapiens, UniProt Q01726); experiment: Displacement of [125I]NDP-alpha-MSH from cloned human MC1R expressed in HEK293 cell
Melanocyte-stimulating hormone receptor, sequence (Q01726 whole entry): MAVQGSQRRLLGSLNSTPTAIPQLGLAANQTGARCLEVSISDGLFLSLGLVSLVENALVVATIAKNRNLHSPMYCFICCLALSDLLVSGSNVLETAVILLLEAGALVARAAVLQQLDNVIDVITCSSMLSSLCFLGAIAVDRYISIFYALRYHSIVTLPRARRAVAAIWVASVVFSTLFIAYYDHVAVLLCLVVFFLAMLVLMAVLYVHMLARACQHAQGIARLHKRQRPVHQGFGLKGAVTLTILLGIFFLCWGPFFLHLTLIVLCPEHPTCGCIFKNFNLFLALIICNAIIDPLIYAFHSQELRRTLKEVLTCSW

Melanocortin receptor 3 = Melanocortin receptor 3 (Homo sapiens, UniProt P41968); experiment: Displacement of [125I]NDP-alpha-MSH from cloned human MC3R expressed in HEK293 cell
Melanocortin receptor 3, sequence (P41968 whole entry): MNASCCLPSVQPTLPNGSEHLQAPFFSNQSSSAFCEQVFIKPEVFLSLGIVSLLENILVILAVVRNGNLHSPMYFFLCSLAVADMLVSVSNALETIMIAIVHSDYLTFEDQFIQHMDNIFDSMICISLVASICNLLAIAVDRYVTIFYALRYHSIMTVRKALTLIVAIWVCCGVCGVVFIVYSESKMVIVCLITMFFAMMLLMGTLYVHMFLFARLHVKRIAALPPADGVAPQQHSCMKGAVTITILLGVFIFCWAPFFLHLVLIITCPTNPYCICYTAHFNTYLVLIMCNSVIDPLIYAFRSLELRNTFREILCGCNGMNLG

Melanocortin receptor 5 = Melanocortin receptor 5 (Homo sapiens, UniProt P33032); experiment: Displacement of [125I]NDP-alpha-MSH from cloned human MC5R expressed in HEK293 cell
Melanocortin receptor 5, sequence (P33032 whole entry): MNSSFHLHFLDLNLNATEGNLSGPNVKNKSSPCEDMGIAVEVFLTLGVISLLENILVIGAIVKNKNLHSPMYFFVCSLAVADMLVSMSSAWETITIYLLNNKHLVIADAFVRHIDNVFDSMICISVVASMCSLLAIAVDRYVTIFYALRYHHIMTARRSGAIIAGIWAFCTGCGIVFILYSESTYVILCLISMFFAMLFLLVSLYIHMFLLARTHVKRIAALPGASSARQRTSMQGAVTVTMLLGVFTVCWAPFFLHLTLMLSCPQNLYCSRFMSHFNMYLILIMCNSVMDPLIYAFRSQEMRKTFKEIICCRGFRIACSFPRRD

Melanocortin receptor 4, sequence (P32245 whole entry): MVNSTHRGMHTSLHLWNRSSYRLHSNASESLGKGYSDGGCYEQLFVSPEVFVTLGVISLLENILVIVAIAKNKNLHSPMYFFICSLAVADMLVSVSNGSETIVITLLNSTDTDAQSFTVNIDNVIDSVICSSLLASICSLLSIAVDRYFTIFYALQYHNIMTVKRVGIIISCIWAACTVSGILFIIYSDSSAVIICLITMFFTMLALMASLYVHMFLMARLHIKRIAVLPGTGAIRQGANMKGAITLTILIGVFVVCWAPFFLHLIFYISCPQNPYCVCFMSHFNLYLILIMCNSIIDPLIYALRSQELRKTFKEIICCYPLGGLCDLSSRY

Row | Ki (Melanocortin receptor 4) | Ki [1] | Ki (Melanocortin receptor 3) | Ki (Melanocortin receptor 5) | Structure (SMILES)
1 | 95.6 nM | 7000 nM | 1400 nM | 920 nM | CCN(CC)CC(c1ccccc1F)N1CCN(C(=O)[C@@H](Cc2ccc(Cl)cc2)NC(=O)c2cc3ccccc3cn2)CC1 (some centres undefined)
2 | 40.6 nM | 5800 nM | 7000 nM | 950 nM | CCN(CC)CC(c1ccccc1F)N1CCN(C(=O)[C@@H](Cc2ccc(Cl)cc2)NC(=O)[C@H]2Cc3ccccc3CN2)CC1 (some centres undefined)
3 | 10.4 nM | 3000 nM | 4200 nM | 910 nM | CCN(CC)CC(c1ccccc1F)N1CCN(C(=O)[C@@H](Cc2ccc(Cl)cc2)NC(=O)CC2NCCc3ccccc32)CC1 (some centres undefined)
4 | 5.8 nM | 7000 nM | 1900 nM | 420 nM | CCN(CC)CC(c1ccccc1F)N1CCN(C(=O)[C@@H](Cc2ccc(Cl)cc2)NC(=O)C2Cc3ccccc3C(C)(C)N2)CC1 (some centres undefined)
5 | 7.3 nM | 6000 nM | 3400 nM | 1200 nM | CCN(CC)CC(c1ccccc1F)N1CCN(C(=O)[C@@H](Cc2ccc(Cl)cc2)NC(=O)CC2NCc3ccccc32)CC1 (some centres undefined)
6 | 17.3 nM | 8600 nM | 4600 nM | 2000 nM | CCN(CC)CC(c1ccccc1F)N1CCN(C(=O)[C@@H](Cc2ccc(Cl)cc2)NC(=O)CC2c3ccccc3CN2C)CC1 (some centres undefined)
7 | 73.7 nM | 20000 nM | 16000 nM | 1400 nM | CCN(CC)CC(c1ccccc1F)N1CCN(C(=O)[C@@H](Cc2ccc(Cl)cc2)NC(=O)CC2(C)NCc3ccccc32)CC1 (some centres undefined)
8 | 178 nM | – | – | – | CCN(CC)CC(c1ccccc1Cl)N1CCN(C(=O)[C@@H](Cc2ccc(Cl)cc2)NC(=O)CC2NCc3ccccc32)CC1 (stereo in doubt; 40a)
9 | 18.1 nM | – | – | – | CCN(CC)CC(c1ccccc1Cl)N1CCN(C(=O)[C@@H](Cc2ccc(Cl)cc2)NC(=O)CC2NCc3ccccc32)CC1 (stereo in doubt; 40b)
10 | 107 nM | – | – | – | CCN(CC)CC(c1ccccc1Cl)N1CCN(C(=O)[C@@H](Cc2ccc(Cl)cc2)NC(=O)CC2NCc3ccccc32)CC1 (stereo in doubt; 41a)
11 | 5.3 nM | – | – | – | CCN(CC)CC(c1ccccc1Cl)N1CCN(C(=O)[C@@H](Cc2ccc(Cl)cc2)NC(=O)CC2NCc3ccccc32)CC1 (stereo in doubt; 41b)
12 | 30.2 nM | – | – | – | CCN(CC)CC(c1ccccc1Cl)N1CCN(C(=O)[C@@H](Cc2ccc(Cl)cc2)NC(=O)CC2NCCc3ccccc32)CC1 (stereo in doubt; 42)
13 | 6.4 nM | – | – | – | CCN(CC)CC(c1ccccc1Cl)N1CCN(C(=O)[C@@H](Cc2ccc(Cl)cc2)NC(=O)CC2NCCc3ccccc32)CC1 (stereo in doubt; 43)
